Assay results as given in US11021457B2, “Class of isoindolone-imide ring-1,3-dione-2-ene compounds, composition and use thereof” (WIGEN BIOMEDICINE TECHNOLOGY (SHANGHAI) CO., LTD., priority 2017, dated 2021).
Like-named read-outs stand apart in the source and are kept apart here.

Legend:
LC3B = LC3B (Homo sapiens (Human), UniProt Q9GZQ8); assay: Fluorescence polarization experiment targeting LC3B (GST-LC3B with FITC-labeled peptide)
BxPC-3 = assay: Inhibition of tumor cell proliferation, CellTiter-Glo, BxPC-3; format: cell-based; details: compound concentration 50 μM, 72 hours
Procedure, shortened: (§1)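 Cells seeded at 2000-10000 per well, treated immediately (suspension) or after adherence (adherent) and cultured at 37° C, 5% CO2. Viability read by CellTiter-Glo at 72 h as blank-corrected survival rate vs control. Scored at 50 μM compound: survival 60-<90% +, >30-60% ++, ≤30% +++.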

K562 = assay: Inhibition of tumor cell proliferation, CellTiter-Glo, K562; format: cell-based; details: compound concentration 50 μM, 72 hours
Procedure, shortened: as §1

MDA-MB-453 = assay: Inhibition of tumor cell proliferation, CellTiter-Glo, MDA-MB-453; format: cell-based; details: compound concentration 50 μM, 72 hours
Procedure, shortened: as §1

RPMI-8226 = assay: Inhibition of tumor cell proliferation, CellTiter-Glo, RPMI-8226; format: cell-based; details: compound concentration 50 μM, 72 hours
Procedure, shortened: as §1

SU-DHL6 = assay: Inhibition of tumor cell proliferation, CellTiter-Glo, SU-DHL6; format: cell-based; details: compound concentration 50 μM, 72 hours
Procedure, shortened: as §1

A549 = assay: Inhibition of tumor cell proliferation, CellTiter-Glo, A549; format: cell-based; details: compound concentration 50 μM, 72 hours
Procedure, shortened: as §1

[1] = GST-LC3B 180 nM, FITC-labeled peptide 18 nM, 25° C.

Row | IC50 (LC3B) | Compound | cell survival rate (%) at 50 µM (BxPC-3; Homo sapiens, BXPC-3, read-out: Inhibitory activity against proliferation (cell survival rate) BxPC-3) | cell survival rate (%) at 50 µM (K562; Homo sapiens, K562, read-out: Inhibitory activity against proliferation (cell survival rate) K562) | cell survival rate (%) at 50 µM (MDA-MB-453; Homo sapiens, MDA-MB-453, read-out: Inhibitory activity against proliferation (cell survival rate) MDA-MB-453) | cell survival rate (% of control) at 50 µM (RPMI-8226; Homo sapiens, RPMI-8226, read-out: Inhibitory activity against proliferation (cell survival rate) RPMI-8226) | cell survival rate (% of control) at 50 µM (SU-DHL6; Homo sapiens, SU-DHL-6, read-out: Inhibitory activity against proliferation (cell survival rate) SU-DHL6) | IC50 (LC3B; [1]) | Inhibitory activity against proliferation (cell survival rate) BxPC-3 (BxPC-3) | Inhibitory activity against proliferation (cell survival rate) A549 (A549) | Inhibitory activity against proliferation (cell survival rate) K562 (K562) | Inhibitory activity against proliferation (cell survival rate) MDA-MB-453 (MDA-MB-453) | Inhibitory activity against proliferation (cell survival rate) RPMI-8226 (RPMI-8226) | Inhibitory activity against proliferation (cell survival rate) SU-DHL6 (SU-DHL6)
1 | 3 to 15 µM | CN1C(=O)/C(=C\Nc2cccc3c2CN(C2CCC(=O)NC2=O)C3=O)C(=O)c2ccc(C(F)(F)F)cc21 (stereo not shown) [Compound 136] | 60 to 90% | 30 to 60% | ≤ 30% | ≤ 30% | 60 to 90% |  |  |  |  |  |  | 
2 |  | O=C1CCC(N2Cc3c(NC=C4C(=O)CC(c5cc6[nH]ccc6cc5Cl)CC4=O)cccc3C2=O)C(=O)N1 (stereo not shown) [Compound 151] |  |  |  |  |  | < 3 µM | + (60≤survival rate (%)<90) | + (60≤survival rate (%)<90) | +++ (survival rate (%)≤30) | +++ (survival rate (%)≤30) | +++ (survival rate (%)≤30) | +++ (survival rate (%)≤30)
3 |  | O=C1CCC(N2Cc3c(NC=C4C(=O)CC(c5cccc(Cl)c5Cl)CC4=O)cccc3C2=O)C(=O)N1 (stereo not shown) [Compound 7] |  |  |  |  |  | < 3 µM | + (60≤survival rate (%)<90) | ++ (30<survival rate (%)≤60) | ++ (30<survival rate (%)≤60) | ++ (30<survival rate (%)≤60) | ++ (30<survival rate (%)≤60) | +++ (survival rate (%)≤30)
4 |  | C[C@@H](CC(=O)Nc1cccc2c1CN(C1CCC(=O)NC1=O)C2=O)NC=C1C(=O)CC(c2ccccc2)CC1=O (stereo partly shown) [Compound 44] |  |  |  |  |  | 100 to 1000 µM | + (60≤survival rate (%)<90) | +++ (survival rate (%)≤30) | +++ (survival rate (%)≤30) | + (60≤survival rate (%)<90) | +++ (survival rate (%)≤30) | +++ (survival rate (%)≤30)
5 |  | O=C1CCC(N2Cc3c(NC=C4C(=O)CC(c5c(Cl)ccc6[nH]ccc56)CC4=O)cccc3C2=O)C(=O)N1 (stereo not shown) [Compound 152] |  |  |  |  |  | < 3 µM | ++ (30<survival rate (%)≤60) | +++ (survival rate (%)≤30) | +++ (survival rate (%)≤30) | ++ (30<survival rate (%)≤60) | +++ (survival rate (%)≤30) | +++ (survival rate (%)≤30)
6 |  | CC(C)[C@H](NC(=O)CCC(=O)OCCN1CCN(CCNC=C2C(=O)CC(c3ccccc3)CC2=O)CC1)C(=O)N[C@@H](CCCNC(N)=O)C(=O)Nc1ccc(COC(=O)Nc2cccc3c2CN(C2CCC(=O)NC2=O)C3=O)cc1 (stereo partly shown) [Compound 89] |  |  |  |  |  | 15 to 100 µM | + (60≤survival rate (%)<90) | ++ (30<survival rate (%)≤60) | ++ (30<survival rate (%)≤60) | +++ (survival rate (%)≤30) | ++ (30<survival rate (%)≤60) | ++ (30<survival rate (%)≤60)
7 |  | O=C1CCC(N2C(=O)c3cccc(NC(=O)[C@@H]4C[C@H](O)CN4CCNC=C4C(=O)CC(c5ccccc5)CC4=O)c3C2=O)C(=O)N1 (stereo partly shown) [Compound 64] |  |  |  |  |  | 15 to 100 µM | + (60≤survival rate (%)<90) |  | +++ (survival rate (%)≤30) | +++ (survival rate (%)≤30) | ++ (30<survival rate (%)≤60) | +++ (survival rate (%)≤30)
8 |  | O=C1CCC(N2Cc3c(NC=C4C(=O)CC(c5cc6[nH]ccc6cc5Br)CC4=O)cccc3C2=O)C(=O)N1 (stereo not shown) [Compound 149] |  |  |  |  |  | < 3 µM | + (60≤survival rate (%)<90) | + (60≤survival rate (%)<90) | +++ (survival rate (%)≤30) | +++ (survival rate (%)≤30) | +++ (survival rate (%)≤30) | +++ (survival rate (%)≤30)
9 |  | O=C1CCC(N2Cc3c(NC=C4C(=O)CC(c5ccccc5N5CCOCC5)CC4=O)cccc3C2=O)C(=O)N1 (stereo not shown) [Compound 155] |  |  |  |  |  | < 3 µM | + (60≤survival rate (%)<90) | +++ (survival rate (%)≤30) | ++ (30<survival rate (%)≤60) | +++ (survival rate (%)≤30) | ++ (30<survival rate (%)≤60) | +++ (survival rate (%)≤30)
10 |  | CC(C)[C@H](NC(=O)CN1CCN(CCNC=C2C(=O)CC(c3ccccc3)CC2=O)CC1)C(=O)N[C@@H](CCCNC(N)=O)C(=O)Nc1cccc2c1CN(C1CCC(=O)NC1=O)C2=O (stereo partly shown) [Compound 60] |  |  |  |  |  | 15 to 100 µM | ++ (30<survival rate (%)≤60) |  | + (60≤survival rate (%)<90) | + (60≤survival rate (%)<90) | +++ (survival rate (%)≤30) | ++ (30<survival rate (%)≤60)
11 |  | O=C1CCC(N2C(=O)c3cccc(NC(=O)CNC=C4C(=O)CC(c5ccccc5)CC4=O)c3C2=O)C(=O)N1 (stereo not shown) [Compound 49] |  |  |  |  |  | 100 to 1000 µM | + (60≤survival rate (%)<90) | ++ (30<survival rate (%)≤60) |  | ++ (30<survival rate (%)≤60) | ++ (30<survival rate (%)≤60) | ++ (30<survival rate (%)≤60)
12 |  | CC(Nc1cccc2c1C(=O)N(C1CCC(=O)NC1=O)C2=O)=C1C(=O)CC(c2ccccc2)CC1=O (stereo not shown) [Compound 76] |  |  |  |  |  | 100 to 1000 µM | ++ (30<survival rate (%)≤60) | +++ (survival rate (%)≤30) | +++ (survival rate (%)≤30) |  | +++ (survival rate (%)≤30) | +++ (survival rate (%)≤30)
13 |  | COC(=O)c1ccc(C2CC(=O)C(=CNc3cccc4c3CN(C3CCC(=O)NC3=O)C4=O)C(=O)C2)cc1 (stereo not shown) [Compound 33] |  |  |  |  |  |  | + (60≤survival rate (%)<90) | +++ (survival rate (%)≤30) | +++ (survival rate (%)≤30) | +++ (survival rate (%)≤30) | +++ (survival rate (%)≤30) | +++ (survival rate (%)≤30)
